Like-named read-outs stand apart in the source and are kept apart here.
Tests used:
ICAM-1 = experiment: Cell surface ELISA for ICAM-1 in human umbilical vein endothelial cells (HUVEC), TNF-alpha induced; assay type: cell-based; conditions: 50 μM, average of two runs, numbers in parentheses represent negative values
Experimental: Cell Surface ELISA for VCAM-1/ICAM-1
Proliferating human umbilical vein endothelial cells (HUVEC) or human aortic smooth muscle cells (HASMC) from Clonetics (San Diego, Calif.) were plated onto 96-well plates in 100 μL medium per well at 20,000 cells per cm^2. The cultures were maintained in growth medium (EGM or SMGM2, Clonetics, San Diego, Calif.) for two days prior to addition of cytokines or drugs. Cytokines plus or minus compounds were added for 20 to 24 hours prior to analysis for adhesion molecule levels. Tumor necrosis factor (Genzyme, Cambridge, Mass.) was added to cultures at 500-1000 units/mL. Interleukin-4 (GIBCO-BRL, Gaithersburg, Md.) was added to cultures at 100-200 pg/mL. (Additions were made by transferring 100 [μL of cytokines plus compounds serially diluted on a separate 96-well plate into the plates containing cells. The medium on the cultures was not exchanged prior to addition of effectors). The culture medium was removed, and the monolayers were washed twice with Hanks buffered saline solution (HBSS) at room temperature. The primary antibody (anti-human VCAM-1 from Upstate Biotechnology, Inc., Lake Placid, N.Y. or anti-human ICAM-1 from Immunotech, Inc., Westbrook, Me.) was added to each well (1 μg/mL in HBSS plus 5% newborn calf serum, GIBCO-BRL, Gaithersburg, Md.) and incubated at 37° C. for 1 hr. The wells were washed twice with HBSS, then 100 μL of a 1/1000 dilution of goat anti-mouse IgG conjugated to horse radish peroxidase (BioRad, Hercules, Calif.) in HBSS plus 5% newborn calf serum was added to each well and incubated for 1 hr at 37° C. The wells were washed three times with HBSS, then 100 μL of TMB substrate (BioRad, Hercules, Calif.) was added to each well. The reaction was stopped after blue color developed by addition of 50 μL of 1N H2 SO4. Absorbance is measured at 450 nm with a plate reader. IC50 values were determined from curves of absorbance values obtained from serial dilutions of compounds (dissolved in dimethyl sulfoxide).
The IC50 value is defined as the drug concentration that inhibits the cytokine-induced adhesion molecule expression by 50%. Maximal values for adhesion molecule expression in cytokine-induced cultures was […] the basal level of adhesion molecule expression (minus cytokines) in the cultures to determine the level of induction. […] Each drug concentration was tested in quadruplicate wells. Single point tests of compounds at 50 μM were assayed as described for IC50 determinations, except that the data represent the level of inhibition without correction for basal expression. (Basal adhesion molecule expression was 10-20% of the total induced expression). Table 1 summarizes the ability of various compounds of this invention to inhibit VCAM-1 using human aortic smooth muscle cells (HASMC). In these experiments, the cells were coincubated with interleukin-4 and the compounds listed about 20 hr before assaying cell surface VCAM-1 levels. Each column represents a separate experiment.
In these experiments, the cells were coincubated with tumor necrosis factor-alpha along with the indicated compounds about 20 to 24 hr before assaying cell surface adhesion molecule expression.

[1] = test system: serum cholesterol, LDL, HDL, triglycerides; experiment: Serum lipids and lipoprotein cholesterol in cholesterol-fed female New Zealand White rabbits; assay type: in vivo; conditions: Oryctolagus cuniculus, po; for response vs control in vivo at 0.4 %: 168 h; for response vs control in vivo at 0.6 %: 336 h, diet 0.6%, 14 days
Summary of the method: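 Female New Zealand White rabbits fed 0.2% cholesterol chow sprayed with 0.4% compound (some at 0.26% or 0.6%) for 7 days (0.6% arm, 14 days). Fasted serum: total cholesterol and triglycerides enzymatically (mg/dL); VLDL/LDL/HDL separated by Sepharose 6HR gel-filtration HPLC, post-column cholesterol reagent at 37 °C, A500.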

[2] = rabbit serum, diet 0.4%, 7 days, read-out: HDL cholesterol, percent of control
[3] = rabbit serum, diet 0.4%, 7 days, read-out: LDL cholesterol, percent of control
[4] = rabbit serum, diet 0.4%, 7 days, read-out: TRIG (triglycerides), percent of control
[5] = rabbit serum, diet 0.4%, 7 days, read-out: chol tot. (total cholesterol), percent of control

Row | Structure (SMILES) | ICAM-1 % inh. (ICAM-1) [%] | response vs control in vivo at 0.4 % [1, 2] [%] | response vs control in vivo at 0.4 % [1, 3] [%] | response vs control in vivo at 0.4 % [1, 4] [%] | response vs control in vivo at 0.4 % [1, 5] [%] | also measured
1 | CC(C)(C)c1cc(OC[Si](C)(C)c2ccccc2)cc(C(C)(C)C)c1OC(=O)CCC(=O)O [MDL 103,076, 2,6-Di-t-butyl-4-[(dimethylphenylsilyl)methyloxy]phenol succinic acid ester] | 76 | – | – | – | – | –
2 | CC(C)(C)c1cc(SC[Si](C)(C)c2ccccc2)cc(C(C)(C)C)c1OC(=O)CCC(=O)O [MDL 103,141, 2,6-Di-t-butyl-4-[(dimethylphenylsilyl)methylthio]phenol sucinic acid ester] | 79.5 | – | – | – | – | –
3 | CC(C)(C)c1cc(OC[Si](C)(C)c2ccccc2)ccc1O [MDL 103,491, 2-t-Butyl-4-[(dimethylphenylsilyl)methyloxy]phenol] | 80 | 103 | 81 | 134 | 85 | response vs control in vivo at 0.6 % ([1]; rabbit serum, read-out: TRIG (triglycerides), percent of control): 216%; response vs control in vivo at 0.6 % ([1]; rabbit serum, read-out: chol tot. (total cholesterol), percent of control): 139%
4 | CN(C)c1ccc([Si](C)(C)COc2cc(C(C)(C)C)c(O)c(C(C)(C)C)c2)cc1 [MDL 104,556, 2,6-Di-t-butyl-4-[(4-N,N-dimethylaminophenyldimethylsilyl)methyloxy]phenol] | 1.5 | 116 | 53 | 81 | 47 | –
5 | CC(C)(C)c1cc(OC[Si](C)(c2ccccc2)c2ccccc2)cc(C(C)(C)C)c1O [MDL 104,599, 2,6-Di-t-butyl-4-[(diphenylmethylsilyl)methloxy]phenol] | – | 105 | 71 | 64 | 76 | –
6 | CC(C)(C)c1cc(OC[Si](C)(C)c2ccccc2)c(C(C)(C)C)cc1O [MDL 104,962, 2,5-Di-t-butyl-4-[(dimethylphenylsilyl)methyloxy]phenol] | – | 163 | 105 | 159 | 118 | –
7 | Cc1cc(OC[Si](C)(C)c2ccccc2)c(C)c(C)c1O [MDL 105,314, 2,3,6-Trimethyl-4-[(dimethylphenylsdilyl)methloxy]phenol] | 75.5 | – | – | – | – | –
8 | CC(=O)Oc1ccc(OC[Si](C)(C)c2ccccc2)cc1C(C)(C)C [MDL 105,443, 2-t-Butyl-4-[(dimethylphenylsilyl)methyloxy]phenol acetic acid ester] | 73.0 | 115 | 97 | 127 | 98 | –
9 | CC(C)(C)c1cc(OC[Si](C)(C)c2ccc(C(F)(F)F)cc2)cc(C(C)(C)C)c1O [MDL 105,975, 2,6-Di-t-butyl-4-[(dimethyl-4-trifluoromethylphenylsilyl)methyloxy]phenol] | 2.5 | – | – | – | – | response vs control in vivo at 0.4 % ([1]; read-out: HDL cholesterol, percent of control): 76%; response vs control in vivo at 0.4 % ([1]; read-out: LDL cholesterol, percent of control): 77%; response vs control in vivo at 0.4 % ([1]; read-out: TRIG (triglycerides), percent of control): 143%; response vs control in vivo at 0.4 % ([1]; read-out: chol tot. (total cholesterol), percent of control): 69%
10 | COc1ccc([Si](C)(C)COc2ccc(O)c(C(C)(C)C)c2)cc1 [MDL 106,834, 2-t-Butyl-4-[(dimethyl-p-methoxylphenylsilyl)methyloxy]phenol] | – | 61 | 89 | 98 | 67 | –
